Like-named read-outs stand apart in the source and are kept apart here.
Columns and labels:
[1] = system: P. berghei liver schizonts; set-up: method as in PMID 30523084; conditions: read-out: EC50 against P. berghei liver schizonts (reported); cited from earlier work
[2] = system: P. berghei liver schizonts; assay: GHPB single point primary screen, FLAR luciferase endpoint; format: cell-based, Plasmodium berghei; conditions: 1 µM
Experimental: The GHPB is an open-access collection of compounds (80 for vector control, 80 for zoonotic and neglected diseases, 80 for drug resistant malaria) obtained from MMV. The library was supplied in a 96-well microtitre plate and moved into a low-volume 384-well plate (Greiner Bio-One, cat 784,261) using a Biomek NXp to transfer 5 μL of 1 mM compound into the destination wells. MMV390048 (1 µM) was used for the positive control wells and DMSO (0.1% v/v) was used for the negative control wells. The GHPB was screened by seeding 5 × 10^3 cells/well which, after 24 h, were infected with a maximum available inoculum of 1.44 × 10^3 sporozoites/well. Three hours post-infection, plates were treated with a pin tool as described above. After 44 h, media was dumped from the plate, lysed using the freeze/thaw method, and luciferase signal was detected with 1 × FLAR as described above.

[3] = molecular target: P. berghei liver schizonts; assay: GHPB dose-response confirmation, FLAR luciferase endpoint; format: cell-based, Plasmodium berghei
Experimental: A total of 35 compounds were identified for resupply of fresh powder for confirmation in dose–response assays. […] Powders were diluted to 50 mM in DMSO and plated in 1000 × source plates as described above. MMV390048 and puromycin were plated as the positive control for P. berghei liver schizont activity and cytotoxicity, respectively. Two independent experiments using 1 × FLAR and 5 × 10^3 cells/well were performed to assess the potency of these compounds against P. berghei liver schizonts, each with an independent production run of P. berghei sporozoites. […] Separately, two independent runs of the HepG2 cultured in galactose, assayed as described above, were used to assess the cytotoxicity potency and selectivity indices for these compounds. Both P. berghei liver schizont and HepG2 cytotoxicity data were loaded into CDD Vault for normalization, curve fitting, and EC50 calculations as described above. Receiver-operator characteristic (ROC) curves were generated using Graphpad Prism and area under the curve (AUC) was calculated using the Wilson/Brown method for both P. berghei liver schizont activity and HepG2 cytotoxicity.

[4] = system: HepG2 cells; assay: HepG2 cytotoxicity assay in galactose media, 72 h, hepatic nuclei count by HCI; format: cell-based, Homo sapiens
Experimental: To assess the general cytotoxicity of GHPB compounds, HepG2 cells were cultured in media containing galactose instead of glucose to avoid false negatives due to the Crabtree effect. Following propagation of HepG2 in T-75 flasks with glucose-containing media as above, media was aspirated, the cell monolayer was washed with PBS, and then cells were trypsinized as above. Released cells were then resuspended in media containing glucose-free DMEM (Gibco, cat 11,966–025) supplemented with 10% FBS (Corning, cat 35–016-CV), 10 mM galactose (Sigma, cat G5388), 1 mM sodium pyruvate (Corning, cat 25–000-CI), 1 × penicillin–streptomycin-neomycin mix (Gibco, cat 15,640–055), and 2 mM L-glutamine (Gibco, cat 25,030–081). The cell density was calculated using trypan blue exclusion on a haemocytometer, diluted to 50 cells/µL, and 40 µL of cells were seeded into collagen-coated 384-well plates (Greiner Bio-One, cat 781,956) using a Biomek NXp (Beckman Coulter), resulting in 2 × 10^3 cells/well. The day after seeding, plates were treated with a pin tool as above and cultured for 72 h. Plates were then fixed with 4% paraformaldehyde, stained with 10 µg/mL Hoechst 33,342, and imaged on an ImageXpress Micro Confocal. Hepatic nuclei were quantified using MetaXpress (Molecular Devices) image analysis software. Both P. berghei liver schizont and HepG2 cytotoxicity data were loaded into CDD Vault for normalization and hit selection as described above. A total of 35 compounds were identified for resupply of fresh powder for confirmation in dose–response assays. […] Powders were diluted to 50 mM in DMSO and plated in 1000 × source plates as described above. […] Separately, two independent runs of the HepG2 cultured in galactose, assayed as described above, were used to assess the cytotoxicity potency and selectivity indices for these compounds. […] Receiver-operator characteristic (ROC) curves were generated using Graphpad Prism and area under the curve (AUC) was calculated using the Wilson/Brown method for both P. berghei liver schizont activity and HepG2 cytotoxicity.

Structure (SMILES)	EC50 [1] [nM]	inhibition of P. berghei liver schizonts in the primary screen ([2]; 44 h) [%]	activity and selectivity in the primary screens ([2]; hit = > 80% inhibition of P. berghei and < 15% inhibition of HepG2)	EC50 ([3]; dose-response confirmation, FLAR, read-out: EC50 against P. berghei liver schizonts) [nM]	Activity (grouping in dose-response confirmation runs) ([3]; grouped as selectively active, active but with low selectivity, nonselective or inactive)	HepG2 Cytotoxicity (pEC50 ± SD) [4]
Cn1cc(CN2CCc3c(c(C(=O)NCc4nccs4)nn3Cc3ccccc3)C2)c2ccccc21 [MMV1167451]	6300					
CCCOc1ccc(C(F)(F)F)cc1NC(=O)c1nc2nccc(C)n2n1 [MMV1262756]	105					
Cn1ccnc1SCC(=O)Nc1ccc(C(=O)Nc2ncccc2O)cc1 [MMV1267536]		69.1	not considered hits	127	active and selective	4.83 ± 0.26
